Data reported in ChEMBL document CHEMBL2384956, “Discovery of tetrahydropyrazolopyrimidine carboxamide derivatives as potent and orally active antitubercular agents” (ACS Med Chem Lett, 2013).
Converted amounts (≈) assume the structure as drawn. The source made the active and inactive calls. The calls are words filed in the database; no cut-off is given here.

Test system: not listed separately
Experiment: Plasma protein binding in human
Type: ADME, cell-free
Conditions: read-out: PPB (converted)

SMILES | fraction unbound
O=C(NCc1ccc(F)cc1)c1cnn2c1N[C@@H](c1ccc(OC3COC3)cc1)C[C@H]2C(F)(F)F | 0.027
COCCOc1ccc([C@H]2C[C@@H](C(F)(F)F)n3ncc(C(=O)NCc4ccc(F)cc4)c3N2)cc1 | 0.019
Cc1ccc([C@H]2C[C@@H](C(F)F)n3ncc(C(=O)NCc4ccc(F)cc4)c3N2)nc1 | 0.043

Test system: not listed separately
Experiment: Ratio of Cmax in mouse lung to Cmax in mouse plasma at 25 mg/kg, po
Type: ADME, organism-based
Set-up: dose 25 mg/kg, route oral
Conditions: not given

SMILES | Kp
O=C(NCc1ccc(F)cc1)c1cnn2c1N[C@@H](c1ccc(OC3COC3)cc1)C[C@H]2C(F)(F)F | 2.7
Cc1ccc([C@H]2C[C@@H](C(F)F)n3ncc(C(=O)NCc4ccc(F)cc4)c3N2)nc1 | 1.7

Test system: not listed separately
Experiment: Cmax in mouse at 25 mg/kg, po
Type: ADME, organism-based
Set-up: dose 25 mg/kg, route oral
Conditions: in vivo

SMILES | Cmax [µM]
O=C(NCc1ccc(F)cc1)c1cnn2c1N[C@@H](c1ccc(OC3COC3)cc1)C[C@H]2C(F)(F)F | 3.7
Cc1ccc([C@H]2C[C@@H](C(F)F)n3ncc(C(=O)NCc4ccc(F)cc4)c3N2)nc1 | 5.5

Test system: Mycobacterium tuberculosis
Experiment: Antitubercular activity against Mycobacterium tuberculosis H37Rv ATCC 27294 […]
Type: functional
Conditions: not given

SMILES | MIC [µM]
O=C(NCc1ccc(F)cc1)c1cnn2c1N[C@@H](c1ccc(OC3COC3)cc1)C[C@H]2C(F)(F)F | 0.73 (≈ 0.358 µg/mL)
COCCOc1ccc([C@H]2C[C@@H](C(F)(F)F)n3ncc(C(=O)NCc4ccc(F)cc4)c3N2)cc1 | 0.44 (≈ 0.217 µg/mL)
Cc1ccc([C@H]2C[C@@H](C(F)F)n3ncc(C(=O)NCc4ccc(F)cc4)c3N2)nc1 | 0.6 (≈ 0.249 µg/mL)

Test system: not listed separately
Experiment: Plasma protein binding in mouse
Type: ADME, cell-free
Conditions: read-out: PPB (converted)

SMILES | fraction unbound
O=C(NCc1ccc(F)cc1)c1cnn2c1N[C@@H](c1ccc(OC3COC3)cc1)C[C@H]2C(F)(F)F | 0.024
COCCOc1ccc([C@H]2C[C@@H](C(F)(F)F)n3ncc(C(=O)NCc4ccc(F)cc4)c3N2)cc1 | 0.015
Cc1ccc([C@H]2C[C@@H](C(F)F)n3ncc(C(=O)NCc4ccc(F)cc4)c3N2)nc1 | 0.052

Molecular target: Cytochrome P450 3A5 (Homo sapiens, UniProt P20815)
Experiment: Inhibition of CYP3A5 in human liver microsomes using midazolam as substrate by LC-MS/MS analysis
Type: ADME, Microsome
Conditions: not given

Sequence of Cytochrome P450 3A5 (P20815 whole entry): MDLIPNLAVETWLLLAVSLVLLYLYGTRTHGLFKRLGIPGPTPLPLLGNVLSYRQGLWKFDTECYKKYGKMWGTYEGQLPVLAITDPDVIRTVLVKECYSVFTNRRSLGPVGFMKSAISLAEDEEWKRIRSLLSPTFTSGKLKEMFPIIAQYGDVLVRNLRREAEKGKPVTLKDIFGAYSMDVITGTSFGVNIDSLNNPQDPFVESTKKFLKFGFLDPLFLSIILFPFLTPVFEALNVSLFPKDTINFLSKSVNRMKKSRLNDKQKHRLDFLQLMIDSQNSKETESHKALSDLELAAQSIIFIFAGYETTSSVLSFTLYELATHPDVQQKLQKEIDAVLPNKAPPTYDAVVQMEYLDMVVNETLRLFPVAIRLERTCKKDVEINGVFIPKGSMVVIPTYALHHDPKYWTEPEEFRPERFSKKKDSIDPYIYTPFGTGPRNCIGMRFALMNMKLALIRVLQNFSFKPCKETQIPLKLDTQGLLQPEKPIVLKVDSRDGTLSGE

SMILES | inhibition (INH)
O=C(NCc1ccc(F)cc1)c1cnn2c1N[C@@H](c1ccc(OC3COC3)cc1)C[C@H]2C(F)(F)F | Not Active
Cc1ccc([C@H]2C[C@@H](C(F)F)n3ncc(C(=O)NCc4ccc(F)cc4)c3N2)nc1 | Not Active

Test system: not listed separately
Experiment: Ratio of AUC in mouse lung to AUC in mouse plasma at 25 mg/kg, po
Type: ADME, organism-based
Set-up: dose 25 mg/kg, route oral
Conditions: read-out: Ratio AUC

SMILES | Kp
O=C(NCc1ccc(F)cc1)c1cnn2c1N[C@@H](c1ccc(OC3COC3)cc1)C[C@H]2C(F)(F)F | 2.2
Cc1ccc([C@H]2C[C@@H](C(F)F)n3ncc(C(=O)NCc4ccc(F)cc4)c3N2)nc1 | 2.8

Test system: not listed separately
Experiment: Clearance in mouse at 5 mg/kg, iv
Type: ADME, organism-based
Set-up: dose 5 mg/kg, route intravenous
Conditions: in vivo

SMILES | clearance [mL/min/kg]
O=C(NCc1ccc(F)cc1)c1cnn2c1N[C@@H](c1ccc(OC3COC3)cc1)C[C@H]2C(F)(F)F | 9.9
Cc1ccc([C@H]2C[C@@H](C(F)F)n3ncc(C(=O)NCc4ccc(F)cc4)c3N2)nc1 | 24

Test system: not listed separately
Experiment: AUC in mouse at 200 mg/kg, po
Type: ADME, organism-based
Set-up: dose 200 mg/kg, route oral
Conditions: plasma

SMILES | AUC [µM·h]
O=C(NCc1ccc(F)cc1)c1cnn2c1N[C@@H](c1ccc(OC3COC3)cc1)C[C@H]2C(F)(F)F | 71.3
Cc1ccc([C@H]2C[C@@H](C(F)F)n3ncc(C(=O)NCc4ccc(F)cc4)c3N2)nc1 | 77.7

Test system: not listed separately
Experiment: Octanol-water partition coefficient, log P of the compound
Type: physicochemical
Conditions: not given

SMILES | logP
O=C(NCc1ccc(F)cc1)c1cnn2c1N[C@@H](c1ccc(OC3COC3)cc1)C[C@H]2C(F)(F)F | 5.1
COCCOc1ccc([C@H]2C[C@@H](C(F)(F)F)n3ncc(C(=O)NCc4ccc(F)cc4)c3N2)cc1 | 4.1
Cc1ccc([C@H]2C[C@@H](C(F)F)n3ncc(C(=O)NCc4ccc(F)cc4)c3N2)nc1 | 4.6

Molecular target: Cytochrome P450 2D6 (Homo sapiens, UniProt P10635)
Experiment: Inhibition of CYP2D6 in human liver microsomes using bufuralol as substrate by LC-MS/MS analysis
Type: ADME, Microsome
Conditions: not given

Sequence of Cytochrome P450 2D6 (P10635 whole entry): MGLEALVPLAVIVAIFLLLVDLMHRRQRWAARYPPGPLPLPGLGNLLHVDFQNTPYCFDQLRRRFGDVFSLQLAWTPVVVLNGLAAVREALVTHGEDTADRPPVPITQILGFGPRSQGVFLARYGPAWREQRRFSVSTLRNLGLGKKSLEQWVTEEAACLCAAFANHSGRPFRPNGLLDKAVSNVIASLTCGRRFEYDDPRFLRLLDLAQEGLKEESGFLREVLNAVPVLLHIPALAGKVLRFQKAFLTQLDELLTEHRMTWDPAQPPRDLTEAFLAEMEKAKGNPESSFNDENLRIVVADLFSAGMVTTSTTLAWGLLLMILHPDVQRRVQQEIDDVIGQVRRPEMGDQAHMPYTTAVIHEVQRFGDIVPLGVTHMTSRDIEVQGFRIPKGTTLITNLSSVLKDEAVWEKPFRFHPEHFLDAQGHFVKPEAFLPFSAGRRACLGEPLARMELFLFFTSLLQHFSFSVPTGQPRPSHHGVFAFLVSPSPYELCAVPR

SMILES | inhibition (INH)
O=C(NCc1ccc(F)cc1)c1cnn2c1N[C@@H](c1ccc(OC3COC3)cc1)C[C@H]2C(F)(F)F | Not Active
Cc1ccc([C@H]2C[C@@H](C(F)F)n3ncc(C(=O)NCc4ccc(F)cc4)c3N2)nc1 | Not Active

Molecular target: Cytochrome P450 2C9 (Homo sapiens, UniProt P11712)
Experiment: Inhibition of CYP2C9 in human liver microsomes using diclofenac as substrate by LC-MS/MS analysis
Type: ADME, Microsome
Conditions: not given

Sequence of Cytochrome P450 2C9 (P11712 whole entry): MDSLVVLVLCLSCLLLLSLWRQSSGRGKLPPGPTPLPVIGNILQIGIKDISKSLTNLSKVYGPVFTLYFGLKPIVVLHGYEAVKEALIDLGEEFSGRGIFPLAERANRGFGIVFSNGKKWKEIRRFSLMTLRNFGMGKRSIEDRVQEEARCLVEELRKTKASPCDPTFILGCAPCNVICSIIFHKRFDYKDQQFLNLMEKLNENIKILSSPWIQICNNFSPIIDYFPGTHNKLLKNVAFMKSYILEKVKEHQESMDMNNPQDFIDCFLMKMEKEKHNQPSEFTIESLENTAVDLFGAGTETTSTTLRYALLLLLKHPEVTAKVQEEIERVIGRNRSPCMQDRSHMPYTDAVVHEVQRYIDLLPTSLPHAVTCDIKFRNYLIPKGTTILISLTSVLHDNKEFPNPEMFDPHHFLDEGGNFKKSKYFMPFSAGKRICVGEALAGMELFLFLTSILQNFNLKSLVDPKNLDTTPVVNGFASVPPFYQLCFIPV

SMILES | inhibition (INH)
O=C(NCc1ccc(F)cc1)c1cnn2c1N[C@@H](c1ccc(OC3COC3)cc1)C[C@H]2C(F)(F)F | Not Active
Cc1ccc([C@H]2C[C@@H](C(F)F)n3ncc(C(=O)NCc4ccc(F)cc4)c3N2)nc1 | Not Active

Test system: not listed separately
Experiment: Oral bioavailability in mouse at 25 mg/kg
Type: ADME, organism-based
Conditions: in vivo

SMILES | bioavailability [%]
O=C(NCc1ccc(F)cc1)c1cnn2c1N[C@@H](c1ccc(OC3COC3)cc1)C[C@H]2C(F)(F)F | 52
Cc1ccc([C@H]2C[C@@H](C(F)F)n3ncc(C(=O)NCc4ccc(F)cc4)c3N2)nc1 | 53

Molecular target: Cytochrome P450 3A4 (Homo sapiens, UniProt P08684)
Experiment: Inhibition of CYP3A4 in human liver microsomes using midazolam as substrate by LC-MS/MS analysis
Type: ADME, Microsome
Conditions: not given

Sequence of Cytochrome P450 3A4 (P08684 whole entry): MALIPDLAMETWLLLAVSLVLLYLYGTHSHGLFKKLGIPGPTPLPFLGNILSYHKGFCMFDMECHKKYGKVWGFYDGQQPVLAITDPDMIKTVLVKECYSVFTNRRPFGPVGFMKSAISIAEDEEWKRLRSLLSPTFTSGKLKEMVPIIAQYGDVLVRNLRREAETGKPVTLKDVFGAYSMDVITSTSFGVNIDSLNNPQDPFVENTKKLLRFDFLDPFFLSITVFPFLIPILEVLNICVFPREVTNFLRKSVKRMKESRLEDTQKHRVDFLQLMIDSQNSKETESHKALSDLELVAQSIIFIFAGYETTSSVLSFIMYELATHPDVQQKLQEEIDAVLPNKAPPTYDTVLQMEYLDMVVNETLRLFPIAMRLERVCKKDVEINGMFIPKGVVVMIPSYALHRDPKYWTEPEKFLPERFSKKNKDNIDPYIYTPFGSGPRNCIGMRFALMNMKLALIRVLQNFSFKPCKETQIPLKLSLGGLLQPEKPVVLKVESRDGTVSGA

SMILES | inhibition (INH)
O=C(NCc1ccc(F)cc1)c1cnn2c1N[C@@H](c1ccc(OC3COC3)cc1)C[C@H]2C(F)(F)F | Not Active
Cc1ccc([C@H]2C[C@@H](C(F)F)n3ncc(C(=O)NCc4ccc(F)cc4)c3N2)nc1 | Not Active

Test system: not listed separately
Experiment: Elimination half life in mouse at 5 mg/kg, iv
Type: ADME, organism-based
Set-up: dose 5 mg/kg, route intravenous
Conditions: in vivo, read-out: beta t1/2 (converted)

SMILES | half-life [h]
O=C(NCc1ccc(F)cc1)c1cnn2c1N[C@@H](c1ccc(OC3COC3)cc1)C[C@H]2C(F)(F)F | 4.1
Cc1ccc([C@H]2C[C@@H](C(F)F)n3ncc(C(=O)NCc4ccc(F)cc4)c3N2)nc1 | 1.8

Test system: not listed separately
Experiment: AUC in mouse at 25 mg/kg, po
Type: ADME, organism-based
Set-up: dose 25 mg/kg, route oral
Conditions: plasma

SMILES | AUC [µM·h]
O=C(NCc1ccc(F)cc1)c1cnn2c1N[C@@H](c1ccc(OC3COC3)cc1)C[C@H]2C(F)(F)F | 41.7
Cc1ccc([C@H]2C[C@@H](C(F)F)n3ncc(C(=O)NCc4ccc(F)cc4)c3N2)nc1 | 16.8

Test system: not listed separately
Experiment: Volume of distribution at steady state in mouse at 5 mg/kg, iv
Type: ADME, organism-based
Set-up: dose 5 mg/kg, route intravenous
Conditions: in vivo, read-out: Vdss

SMILES | Vd [L/kg]
O=C(NCc1ccc(F)cc1)c1cnn2c1N[C@@H](c1ccc(OC3COC3)cc1)C[C@H]2C(F)(F)F | 2.5
Cc1ccc([C@H]2C[C@@H](C(F)F)n3ncc(C(=O)NCc4ccc(F)cc4)c3N2)nc1 | 2.6

Test system: Mycobacterium tuberculosis
Experiment: Antitubercular activity against Mycobacterium tuberculosis infected in BALB/c mouse assessed as reduction in log10CFU at 100 mg/kg, po qd administered 7 days post-infection for 28 days relative to control
Type: functional
Conditions: not given

SMILES | Activity
O=C(NCc1ccc(F)cc1)c1cnn2c1N[C@@H](c1ccc(OC3COC3)cc1)C[C@H]2C(F)(F)F | inactive
Cc1ccc([C@H]2C[C@@H](C(F)F)n3ncc(C(=O)NCc4ccc(F)cc4)c3N2)nc1 | inactive

Test system: not listed separately
Experiment: Clearance in mouse liver microsomes
Type: ADME, Microsome
Conditions: read-out: CLH

SMILES | microsomal CLint [µL/min/mg]
O=C(NCc1ccc(F)cc1)c1cnn2c1N[C@@H](c1ccc(OC3COC3)cc1)C[C@H]2C(F)(F)F | 8.92
Cc1ccc([C@H]2C[C@@H](C(F)F)n3ncc(C(=O)NCc4ccc(F)cc4)c3N2)nc1 | 85.6

Test system: not listed separately
Experiment: Cmax in mouse at 200 mg/kg, po
Type: ADME, organism-based
Set-up: dose 200 mg/kg, route oral
Conditions: in vivo

SMILES | Cmax [µM]
O=C(NCc1ccc(F)cc1)c1cnn2c1N[C@@H](c1ccc(OC3COC3)cc1)C[C@H]2C(F)(F)F | 7.3
Cc1ccc([C@H]2C[C@@H](C(F)F)n3ncc(C(=O)NCc4ccc(F)cc4)c3N2)nc1 | 15.2

Molecular target: T1, Nuclear receptor subfamily 1 group I member 2 (Homo sapiens, UniProt O75469)
T1 sequence (O75469 whole entry): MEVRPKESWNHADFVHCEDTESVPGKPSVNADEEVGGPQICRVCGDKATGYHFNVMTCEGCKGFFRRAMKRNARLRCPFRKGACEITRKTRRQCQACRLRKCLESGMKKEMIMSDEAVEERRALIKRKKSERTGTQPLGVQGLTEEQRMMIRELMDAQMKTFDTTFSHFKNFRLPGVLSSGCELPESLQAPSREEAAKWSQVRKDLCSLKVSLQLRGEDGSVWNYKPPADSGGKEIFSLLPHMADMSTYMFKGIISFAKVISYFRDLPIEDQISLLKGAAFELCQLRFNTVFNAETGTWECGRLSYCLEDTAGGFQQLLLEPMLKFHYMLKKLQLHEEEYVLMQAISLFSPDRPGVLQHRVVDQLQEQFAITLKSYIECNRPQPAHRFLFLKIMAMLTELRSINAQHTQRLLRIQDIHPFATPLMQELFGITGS
Experiment: Induction of PXR-mediated CYP3A4 expression in human DPX2 cells after 24 hrs by luciferase reporter gene assay
Type: cell-based
Conditions: dpx2, 24 h

SMILES | Activity
O=C(NCc1ccc(F)cc1)c1cnn2c1N[C@@H](c1ccc(OC3COC3)cc1)C[C@H]2C(F)(F)F | Not Active
Cc1ccc([C@H]2C[C@@H](C(F)F)n3ncc(C(=O)NCc4ccc(F)cc4)c3N2)nc1 | Not Active

Test system: not listed separately
Experiment: Aqueous solubility of the compound at pH 6.8
Type: physicochemical
Conditions: not given

SMILES | solubility [µM]
O=C(NCc1ccc(F)cc1)c1cnn2c1N[C@@H](c1ccc(OC3COC3)cc1)C[C@H]2C(F)(F)F | 9 (≈ 4.41 µg/mL)
COCCOc1ccc([C@H]2C[C@@H](C(F)(F)F)n3ncc(C(=O)NCc4ccc(F)cc4)c3N2)cc1 | 6 (≈ 2.95 µg/mL)
Cc1ccc([C@H]2C[C@@H](C(F)F)n3ncc(C(=O)NCc4ccc(F)cc4)c3N2)nc1 | 212 (≈ 88.1 µg/mL)
